Measurements published in ChEMBL document CHEMBL2073854, “Localization and function of the organic anion-transporting polypeptide Oatp2 in rat liver” (Gastroenterology, 1999).

What was measured:
[1] = target: T1, Solute carrier organic anion transporter family member 1A4 (Rattus norvegicus, UniProt O35913); test: (§1) TP_TRANSPORTER: uptake in Xenopus laevis oocytes; format: functional, cell-based; settings: oocyte
T1 sequence (O35913 whole entry): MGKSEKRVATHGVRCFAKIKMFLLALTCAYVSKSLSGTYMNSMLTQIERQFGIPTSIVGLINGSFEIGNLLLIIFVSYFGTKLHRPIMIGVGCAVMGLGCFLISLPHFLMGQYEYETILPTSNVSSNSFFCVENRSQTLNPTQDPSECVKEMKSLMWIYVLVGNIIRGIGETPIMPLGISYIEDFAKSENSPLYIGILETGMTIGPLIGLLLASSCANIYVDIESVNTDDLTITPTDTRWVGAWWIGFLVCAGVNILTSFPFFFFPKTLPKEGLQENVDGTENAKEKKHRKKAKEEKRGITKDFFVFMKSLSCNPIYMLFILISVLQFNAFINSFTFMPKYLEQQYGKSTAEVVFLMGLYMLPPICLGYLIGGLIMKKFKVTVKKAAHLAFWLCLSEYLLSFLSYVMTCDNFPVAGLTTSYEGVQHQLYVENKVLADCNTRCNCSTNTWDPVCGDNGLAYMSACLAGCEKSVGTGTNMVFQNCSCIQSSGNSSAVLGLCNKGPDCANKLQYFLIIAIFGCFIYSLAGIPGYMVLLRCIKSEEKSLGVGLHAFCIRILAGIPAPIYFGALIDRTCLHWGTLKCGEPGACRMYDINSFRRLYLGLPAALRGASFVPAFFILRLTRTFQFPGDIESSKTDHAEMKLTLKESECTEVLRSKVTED

[2] = target: T2, Solute carrier organic anion transporter family member 1A1 (Rattus norvegicus, UniProt P46720); test: as §1; format: functional, cell-based; settings: oocyte
T2 sequence (P46720 whole entry): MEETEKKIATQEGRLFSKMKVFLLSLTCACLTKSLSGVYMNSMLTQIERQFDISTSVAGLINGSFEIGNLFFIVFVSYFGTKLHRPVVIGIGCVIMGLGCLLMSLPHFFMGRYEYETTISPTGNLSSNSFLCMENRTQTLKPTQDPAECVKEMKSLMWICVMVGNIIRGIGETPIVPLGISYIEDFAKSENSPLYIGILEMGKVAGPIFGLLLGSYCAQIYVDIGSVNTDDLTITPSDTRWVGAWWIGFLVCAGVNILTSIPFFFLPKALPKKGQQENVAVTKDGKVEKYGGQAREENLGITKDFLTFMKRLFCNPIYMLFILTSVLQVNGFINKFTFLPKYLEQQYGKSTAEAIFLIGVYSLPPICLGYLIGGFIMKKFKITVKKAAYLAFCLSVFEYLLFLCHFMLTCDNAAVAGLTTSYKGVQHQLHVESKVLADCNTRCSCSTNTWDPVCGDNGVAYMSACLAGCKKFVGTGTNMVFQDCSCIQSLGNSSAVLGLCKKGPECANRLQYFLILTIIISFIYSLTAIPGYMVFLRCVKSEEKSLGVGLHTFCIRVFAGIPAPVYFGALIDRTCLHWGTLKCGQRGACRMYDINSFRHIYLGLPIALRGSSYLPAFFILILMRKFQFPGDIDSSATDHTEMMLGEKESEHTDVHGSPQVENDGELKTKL

[3] = substrate: CC(C)C[C@@H]1NC(=O)[C@@H](C(C)C)NC(=O)[C@@H]2CCCN2C(=O)[C@@H](CC(=O)O)NC(=O)[C@@H](Cc2c[nH]c3ccccc23)NC1=O; test: as §1; format: functional, cell-based, Oocyte
[4] = substrate: C[C@H](CCC(=O)NCCS(=O)(=O)O)[C@H]1CC[C@H]2[C@@H]3[C@H](O)C[C@@H]4C[C@H](O)CC[C@]4(C)[C@H]3CC[C@]12C; test: as §1; format: functional, cell-based, Oocyte
[5] = substrate: C[C@H](CCC(=O)NCCS(=O)(=O)O)[C@H]1CC[C@H]2[C@@H]3[C@@H](O)C[C@@H]4C[C@H](O)CC[C@]4(C)[C@H]3CC[C@]12C; test: as §1; format: functional, cell-based, Oocyte
[6] = substrate: [H][C@@]12CC=C3C[C@@H](OS(=O)(=O)O)CC[C@]3(C)[C@@]1([H])CC[C@]1(C)C(=O)CC[C@@]21[H]; test: as §1; format: functional, cell-based, Oocyte
[7] = substrate: [H][C@]12CC[C@]3([H])[C@]([H])(CC[C@]4(C)C([C@H](C)CCC(=O)NCCS(=O)(=O)O)CC[C@@]34[H])[C@@]1(C)CC[C@@H](OS(=O)(=O)O)C2; test: as §1; format: functional, cell-based, Oocyte

Q: For GADOXETATE, which Activity [1] is on record?
A: is not a substrate [-]

Q: Which Activity [1] does the source give for `C=CC1=C(C)/C(=C/c2[nH]c(Cc3[nH]c(/C=C4\NC(=O)C(C)=C4C=C)c(C)c3CCC(=O)O[C@@H]3OC(C(=O)O)[C@@H](O)C(O)C3O)c(CCC(=O)O)c2C)NC1=O` (some centres not stated) [BILIRUBIN MONOGLUCURONIDE] here?
A: is not a substrate [-]

Q: What about the Activity [2] of the same molecule?
A: substrate [+]

Q: With `CCCCC/C=C\C\C=C/C=C/C=C/[C@@H](SC[C@@H](NC(=O)CC[C@H](N)C(=O)O)C(=O)NCC(=O)O)[C@@H](O)CCCC(=O)O` [LEUKOTRIEN C4] as the molecule, how does the Activity [1] read?
A: is not a substrate [-]

Q: `O=C1OC(c2ccc(O)c(S(=O)(=O)[O-])c2)(c2ccc(O)c(S(=O)(=O)[O-])c2)c2c(Br)c(Br)c(Br)c(Br)c21.[Na+].[Na+]` [SULFOBROMOPHTHALEIN SODIUM] was tested. Which Activity [1] did it give?
A: is not a substrate [-]

Q: For `C[C@H](CCC(=O)NCCS(=O)(=O)O)C1CC[C@H]2[C@@H]3CC[C@@H]4C[C@H](OS(=O)(=O)O)CC[C@]4(C)[C@H]3CC[C@]12C` (some centres not stated), which Activity [1] is on record?
A: is not a substrate [-]

B1: Solute carrier organic anion transporter family member 1A4 (Rattus norvegicus) (protein)
chain: T1 sequence (O35913 whole entry)
Q: B1 was tested. Which Km [3] did it give?
A: 30 µM

Q: What about the Km [4] of the same molecule?
A: 12 µM

Q: What about the Km [5] of the same molecule?
A: 17 µM

Q: What about the Km [6] of the same molecule?
A: 17 µM

B2: Solute carrier organic anion transporter family member 1A1 (Rattus norvegicus) (protein)
chain: T2 sequence (P46720 whole entry)
Q: Which results are given for B2?
A: Km [3]: 600 µM; Km [7]: 6 µM
